Reference: US20160195533A1, “METHOD FOR SCREENING EMT INHIBITOR” (Medicinal Bioconvergence Research Center, priority 2015, published 2016)

Assays:
[1] = test system: binding between EPRS and Snail1; assay: Endogenous immunoprecipitation of EPRS with Snail1 immunoblot in TGF-β1-treated cells; type: cell-based; conditions: A549 cells, TGF-β1 0, 1, 10, 20 ng/ml for 48 hours, cytoplasm and nucleus fractions
Method: For the detection of endogenous EPRS interaction with Snail1 in nucleus and cytosol, the protein extracts were incubated with protein A agarose (Life technologies) for 30 minutes on ice, and then centrifuged to remove nonspecific IgG binding proteins. The pre-cleared supernatants were mixed with anti-EPRS antibody, incubated the mixture for 2 h at 4° C. with gentle agitation, added protein A agarose for 2 h, and centrifuged. After washing the precipitates with the cold lysis buffer 3-5 times, the precipitates were dissolved in the 2×SDS sample buffer and separated by SDS-PAGE.
The interaction between EPRS and Snail1 were verified at the endogenous level of cytoplasm and nucleus. A549 cells were treated with TGF-β1 of different concentrations (0, 1, 10, 20 ng/ml) for 48 hours, fractionated into the cytoplasm and the nucleus, and then subjected endo-IP using protein A-agarose beads (Invitrogen) and EPRS antibody.

A549 cells [2] = assay: Cell invasion assay (Matrigel invasion chamber) after EPRS knock-down; type: cell-based; conditions: si-EPRS vs si-control, groups treated with and without TGF-β1 (10 ng/ml, 12 hours)
Method: Cell invasion assay using A549 cells were conducted in the Matrigel invasion chamber manufactured by BD Co. According to the manufacturer's protocol, the matrigel was rehydrated for two hours and 750 μl of the serum-free RPMI was located in a lower chamber. The A549 cells were trypsinized, and then centrifuged at 1,000 rpm for 5 minutes. The serum-free RPMI was added to the cells to prepare a suspension. Then, 1×10^5 cells were put in the upper chamber, and then incubated in a CO2 incubator at 37° C. for 12 hours. The membrane was washed two times with PBS, and the cells were fixed using PBS containing 70% methyl alcohol. Then, the membrane was washed three times with PBS, and then the cells were stained with hematoxylin (Sigma). The membrane was washed several times with distilled water, and then immobilized cells above were removed using cotton swabs. Then, the membrane was mounted on the Gel Mount (Biomeda). For counting moving cells, three randomly selected regions were magnified through the microscope. All samples were repeatedly tested three times.
Here, the groups treated with TGF-β1 were prepared by treatment at a concentration of 10 ng/ml for 12 hours.

EPRS (A549 cells) = assay: Immunoblotting of Snail1 and EMT-related markers after EPRS knock-down using siRNA; type: cell-based, human; conditions: si-EPRS vs si-control, with or without 10 ng/ml TGF-β1 for 1 hour or 48 hours, cytoplasm and nucleus
Method: Human EPRS gene specific siRNA (si-EPRS) including a sense strand of SEQ ID NO: 23 and an antisense strand of SEQ ID NO: 24, and non-silencing control siRNA (si-control, Catalog Number: 4390843) were purchased from Invitrogen Silencer Select siRNAs products.
Cells were lysed with lysis buffer (20 mM Tris-HCl (pH 8.0) buffer containing 150 mM NaCl, 1% Triton X-100, 1 mM EDTA, 10% glycerol, and protease inhibitor) and collected in a 1.5 ml tube and incubated in 4° C. with gentle agitation for 15 minutes. Then, centrifuged at 15,000 rpm for 20 minutes in 4° C. and supernatants were collected and quantified by using Bradford reagent. After 5×SDS sample buffer was added, each sample were boiled in 100° C. for 5 minutes. Protein samples were separated by SDS-PAGE, transferred to nitrocellulose membrane, and immunoblotted with specific antibodies. The blots were then reacted with horseradish peroxidase-coupled anti-mouse and anti-rabbit (Pierce) IgG secondary antibody. Signals were developed with ECL-PLUS detection reagent (GE healthcare lifesciences).
The antibodies specific to the respective marker proteins, used in the present experiment, are as follows: StrepMAB classic-HRP (IBA), Monoclonal anti-FLAG M2-HRP (Sigma), anti-Snail1 (Cell signaling), anti-Slug (Cell signaling), anti-L13a (Cell signaling), anti-p-Smad2 (Cell signaling), anti-p-Smad3 (Cell signaling), anti-E-cadherin (Cell signaling), anti-N-cadherin (Cell signaling), anti-HDAC1 (Bio vision), anti-β-actin (SCBT), anti-Tubulin (Sigma), anti-HSP90 alpha/β (SCBT), anti-p84 (SCBT), and anti-HA (SCBT). The anti-EPRS antibody was prepared through a conventional procedure by which the EPRS protein represented by SEQ ID NO: 1 was injected into a New Zealand white rabbit to cause an immune response, thereby obtaining an antibody.
It was verified how the reduced EPRS affects Snail1 and EMT progress, through EPRS knock-down experiment using siRNA. For each experimental group, […] cells were treated with si-control or si-EPRS, and treated with or without 10 ng/ml of TGF-β1 for 1 hour or 48 hours. […]

A549 cells [3] = assay: Cell migration assay (Transwell) after EPRS knock-down; type: cell-based; conditions: si-EPRS vs si-control, groups treated with and without TGF-β1 (10 ng/ml, 12 hours)
Method: Cell migration assays with A549 cells were performed in Transwell chambers ([…] pore, Costar). Fibronectin (10 μg/ml, BD Biosciences) was coated on the membrane and 700 μl serum-free RPMI was placed in the bottom chamber. After A549 cells were trypsinized and centrifuged at 1,000 rpm for 5 minutes, serum-free RPMI was added to the cells for suspension. Then, 1×10^5 cells were dropped into 24-well Transwell chambers and incubated for 12 h at 37° C. in a CO2 incubator. After washing the membrane twice with PBS, 70% methyl alcohol in PBS was used for cell fixation. PBS washing was performed three times afterwards and hematoxylin (Sigma) was used for cell staining After washing the membrane with distilled water several times, non-migrant cells from the top were removed by using cotton swab. Then, the membranes were mounted with Gel Mount (Biomeda). For counting migrant cells, three randomly picked places were magnified with microscopes in high-power fields (×10, and ×20). All samples were performed in triplicate.
Here, the TGF-β1 treatment groups were treated at a concentration of 10 ng/ml for 12 hours.

Substance | binding between EPRS and Snail1 (endo-IP, Snail1 immunoblot) [1] | cell invasion (A549 cells [2]) | E-cadherin protein level (immunoblot) (EPRS (A549 cells)) | Snail1 protein level (immunoblot) (EPRS (A549 cells)) | p-SMAD3 protein level (immunoblot) (EPRS (A549 cells)) | cell migration (A549 cells [3])
TGF-β1: Growth factor purchased from R&D systems, used to induce EMT | the higher the concentration of TGF-β1, the stronger the binding between EPRS and Snail1 |  |  |  |  | 
si-EPRS: Human EPRS gene specific siRNA including a sense strand of SEQ ID NO: 23 and an antisense strand of SEQ ID NO: 24 (sense CGAUGUCAGCAUUUCCGUUTT; antisense AACGGAAAUGCUGACAUCGTC; chemistry not given here) |  | reduced | increased | reduced | reduced | reduced
